Assay results published in US4337199A, “Antibiotic β-lactam compounds, production thereof, and their use as antimicrobial agent” (Sanraku-Ocean Co., Ltd., priority 1978, dated 1982).
Values after ≈ are worked out from the molar mass of the structure shown.

Columns and labels:
[1] = test system: Alcaligenes faecalis A 1; test: minimum inhibitory concentration, agar dilution assay; type: cell-based; conditions: A1, agar dilution, 35° C., 20 hours, read-out: minimum inhibitory concentration
Summary of the method: (§1)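 Two-fold compound dilutions were incorporated into heart infusion agar. Plates were inoculated with overnight Trypto-Soy broth cultures (35 °C, 18-20 h) diluted to about 10^8 cells/ml. After 20 h at 35 °C, MIC was taken as the lowest concentration with no growth.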

[2] = test system: Bacillus subtilis ATCC 6633; test: as above; type: cell-based; conditions: ATCC6633, agar dilution, 35° C., 20 hours, read-out: minimum inhibitory concentration
Summary of the method: as §1

[3] = test system: Citrobacter freundii GN 346; test: as above; type: cell-based; conditions: GN346, agar dilution, 35° C., 20 hours, read-out: minimum inhibitory concentration
Summary of the method: as §1

[4] = test system: Comamonas terrigena B-996; test: as above; type: cell-based; conditions: B996, agar dilution, 35° C., 20 hours, read-out: minimum inhibitory concentration
Summary of the method: as §1

[5] = test system: Enterobacter aerogenes E19; test: as above; type: cell-based; conditions: Klebsiella aerogenes, E19; agar dilution, 35° C., 20 hours; read-out: minimum inhibitory concentration
Summary of the method: as §1

[6] = test system: Enterobacter cloacae 45; test: as above; type: cell-based; conditions: Enterobacter cloacae, 45; agar dilution, 35° C., 20 hours; read-out: minimum inhibitory concentration
Summary of the method: as §1

[7] = test system: Enterobacter sp. E8; test: as above; type: cell-based; conditions: SP.E8, agar dilution, 35° C., 20 hours, read-out: minimum inhibitory concentration
Summary of the method: as §1

[8] = test system: Escherichia coli K-12; test: as above; type: cell-based; conditions: K12, 20 h, read-out: minimum inhibitory concentration
Summary of the method: as §1

[9] = test system: Escherichia coli RGN 823; test: as above; type: cell-based; conditions: RGN823, agar dilution, 35° C., 20 hours, read-out: minimum inhibitory concentration
Summary of the method: as §1

[10] = test system: Klebsiella pneumoniae K-13; test: as above; type: cell-based; conditions: K13, agar dilution, 35° C., 20 hours, read-out: minimum inhibitory concentration
Summary of the method: as §1

[11] = test system: Proteus mirabilis P6; test: as above; type: cell-based; conditions: P6, agar dilution, 35° C., 20 hours, read-out: minimum inhibitory concentration
Summary of the method: as §1

[12] = test system: Proteus rettgeri P7; test: as above; type: cell-based; conditions: Providencia rettgeri, P7; agar dilution, 35° C., 20 hours; read-out: minimum inhibitory concentration
Summary of the method: as §1

[13] = test system: Proteus sp. P22; test: as above; type: cell-based; conditions: agar dilution, 35° C., 20 hours; read-out: minimum inhibitory concentration
Summary of the method: as §1

[14] = test system: Proteus vulgaris GN76; test: as above; type: cell-based; conditions: GN76, agar dilution, 35° C., 20 hours, read-out: minimum inhibitory concentration
Summary of the method: as §1

[15] = test system: Providencia sp. P8; test: as above; type: cell-based; conditions: SP.P8, agar dilution, 35° C., 20 hours, read-out: minimum inhibitory concentration
Summary of the method: as §1

[16] = test system: Pseudomonas aeruginosa IFO3445; test: as above; type: cell-based; conditions: IFO3445, agar dilution, 35° C., 20 hours, read-out: minimum inhibitory concentration
Summary of the method: as §1

[17] = test system: Pseudomonas aeruginosa NCTC10490; test: as above; type: cell-based; conditions: NCTC10490, agar dilution, 35° C., 20 hours, read-out: minimum inhibitory concentration
Summary of the method: as §1

[18] = test system: Sarcina lutea; test: as above; type: cell-based; conditions: Micrococcus luteus; agar dilution, 35° C., 20 hours; read-out: minimum inhibitory concentration
Summary of the method: as §1

[19] = test system: Serratia marcescens S18; test: as above; type: cell-based; conditions: S18, agar dilution, 35° C., 20 hours, read-out: minimum inhibitory concentration
Summary of the method: as §1

[20] = test system: Serratia marcescens T55; test: as above; type: cell-based; conditions: T55, agar dilution, 35° C., 20 hours, read-out: minimum inhibitory concentration
Summary of the method: as §1

[21] = test system: Staphylococcus aureus FDA 209P; test: as above; type: cell-based; conditions: FDA209P, agar dilution, 35° C., 20 hours, read-out: minimum inhibitory concentration
Summary of the method: as §1

[22] = test system: Staphylococcus aureus Russell; test: as above; type: cell-based; conditions: agar dilution, 35° C., 20 hours, read-out: minimum inhibitory concentration
Summary of the method: as §1

[23] = test system: Staphylococcus aureus Smith; test: as above; type: cell-based; conditions: agar dilution, 35° C., 20 hours, read-out: minimum inhibitory concentration
Summary of the method: as §1

[24] = test system: Staphylococcus epidermidis; test: as above; type: cell-based; conditions: agar dilution, 35° C., 20 hours, read-out: minimum inhibitory concentration
Summary of the method: as §1

[25] = test system: Gram-positive and Gram-negative bacteria; conditions: stated as known; cited from earlier work

Structure (SMILES): Cc1nnc(SCC2=C(C(=O)O)N3C(=O)[C@@H](NC(=O)Cn4cnnn4)[C@H]3SC2)s1 [CEZ, cephazolin, reference compound]
- MIC [1]: 3.13 µg/mL (≈ 6.89 µM)
- MIC [2]: 0.2 µg/mL (≈ 0.44 µM)
- MIC [3]: > 200 µg/mL
- MIC [4]: 0.2 µg/mL (≈ 0.44 µM)
- MIC [5]: > 200 µg/mL
- MIC [6]: > 200 µg/mL
- MIC [7]: 3.13 µg/mL (≈ 6.89 µM)
- MIC [8]: 1.56 µg/mL (≈ 3.43 µM)
- MIC [9]: 200 µg/mL (≈ 440 µM)
- MIC [10]: 200 µg/mL (≈ 440 µM)
- MIC [11]: 6.25 µg/mL (≈ 13.8 µM)
- MIC [12]: > 200 µg/mL
- MIC [13]: > 200 µg/mL
- MIC [14]: > 200 µg/mL
- MIC [15]: 100 µg/mL (≈ 220 µM)
- MIC [16]: > 200 µg/mL
- MIC [17]: > 200 µg/mL
- MIC [18]: 0.39 µg/mL (≈ 0.858 µM)
- MIC [19]: > 200 µg/mL
- MIC [20]: > 200 µg/mL
- MIC [21]: 0.1 µg/mL (≈ 0.22 µM)
- MIC [22]: 0.2 µg/mL (≈ 0.44 µM)
- MIC [23]: 0.2 µg/mL (≈ 0.44 µM)
- MIC [24]: 0.1 µg/mL (≈ 0.22 µM)
- effectiveness against Pseudomonas aeruginosa and Serratia, Proteus, Klebsiella, Enterobacter [25]: known to be effective against Pseudomonas aeruginosa and microorganisms of the genus Serratia, Proteus, Klebsiella, and Enterobacter
